Data on two molecules can be found in patent US20070196816A1, “Engineered stimulus-responsive switches” (priority 2000, published 2007).

One assay concerns the target GST-Bcl2 (Homo sapiens, UniProt P10415). As to conditions: specific binding; Rodi et al.; cited from earlier work.
Another assay concerns lambda phage. Description: Immunity experiments: plaque formation on lambda phage infection of LE392 cells containing engineered repressors, with and without taxol. Type of assay: cell-based. As to conditions: 30° C., scored at 24 and 48 hours. The text has this:
There are multiple ways to evaluate lambda repressor function. One such method exploits the central role of the repressor in controlling the decision of lambda phage to enter the lytic or the lysogenic phase. In the presence of a high concentration of functional cI in the bacterial cell, entering lambda phage are pushed into the lysogenic phase. In the absence of cI, bacteria are susceptible to infection by lambda phage: the lysed cells manifest as plaques on a bacterial lawn. The level of functional cI in a cell determines whether incoming phage will continue to enter the lytic cycle or choose the lysogenic cycle, when the phage is integrated into the host genome. Cells with functional cI can thus display immunity to phage superinfection. In addition it is also possible to conduct in vitro experiments, such as electrophoretic mobility shift assays where binding of purified protein to labeled oligonucleotide duplexes can be monitored.
The repressors were placed under the control of a constitutive promoter (tet promoter) in a pUNI (Invitrogen) donor vector. […]
Five sets of experiments have been done with each of the cI-bZIP, TBD-cI-bZIP, and TBD-ΔK-cI-bZIP constructs. […] Plaque phenotype was scored at 24 and 48 hours of incubation at 30° C. The number of plaques was counted for three experiments using 3-5 replicates for each set.

Sequence of GST-Bcl2 (P10415 whole entry): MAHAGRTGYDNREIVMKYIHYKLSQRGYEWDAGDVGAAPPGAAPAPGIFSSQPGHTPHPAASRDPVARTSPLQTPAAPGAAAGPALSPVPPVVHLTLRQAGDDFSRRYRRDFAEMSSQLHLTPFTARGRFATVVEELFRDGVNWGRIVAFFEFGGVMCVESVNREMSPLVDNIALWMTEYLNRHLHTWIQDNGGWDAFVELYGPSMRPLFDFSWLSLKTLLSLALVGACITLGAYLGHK

With `CC(=O)O[C@H]1C(=O)[C@@]2(C)[C@H]([C@H](OC(=O)c3ccccc3)[C@]3(O)C[C@H](OC(=O)[C@H](O)[C@@H](NC(=O)c4ccccc4)c4ccccc4)C(C)=C1C3(C)C)[C@]1(OC(C)=O)CO[C@@H]1C[C@@H]2O` [taxol], the “Kd of taxol binding to GST-Bcl2” value on GST-Bcl2 is “nanomolar range”. As to “cI-bZIP: chimeric repressor: DNA binding domain and linker of lambda repressor (cI aa 1-132) fused to GCN4 leucine zipper; SEQ ID NO: 12”, in the assay with lambda phage (100 uM taxol in culture and top agar), the “Change of plaque phenotype/size on addition of taxol” value is reported as “not changed”. Moreover, in the assay on lambda phage (LE392 cells containing the repressor, absence of taxol), the “Plaque phenotype (size) on infection with lambda phage” value was “miniscule plaques barely visible to the eye”.
